Data taken from patent US12329788B2, “Synbiotic compositions” (Evonik Operations GmbH, priority 2018, dated 2025).
Where a SMILES comes first, the peptide text is derived from it.

Legend:
[1] = tested on: Clostridium XI cluster; assay: i-screen microbiota composition by 16S rRNA V4 sequencing, Clostridium XI; format: cell-based, human; details: for Clostridium_XI relative abundance: 24 h SIEM, amino acids 3.5 mM, dipeptides 7 mM; for effect on Clostridia XI group: Example 8, dipeptides 7 mM, 0% O2
Text: (§1) To determine the effect of the probiotic strains Bacillus subtilis DSM 32315, Bacillus subtilis DSM 32540, Bacillus licheniformis DSM 32314 and Bacillus amyloliquefaciens CECT 5940 on adult colonic microbiota, an intestinal screening model was used (i-screen, TNO, the Netherlands). Therefore the i-screen model was inoculated with standard human adult fecal microbiota material, which consisted of pooled fecal donations from 6 healthy adult volunteers (Caucasian, European lifestyle and nutrition). The fecal material was mixed and grown in a fed-batch fermenter for 40 hours to create a standardized microbiota as described previously. These standard adult gut microbiota sets were stored at −80° C. in 12% glycerol.
(§2) The intestinal microbiota was cultured in vitro in modified standard ileal efflux medium (SIEM), the composition of which was described by and modified as follows: 0.047 g/l pectin, 0.047 g/l xylan, 0.047 g/l arabinogalactan, 0.047 g/l amylopectin, 0.392 g/l starch, 24.0 g/l casein, 24.0 Bacto pepton, 0.4 ox-bile and 0.2 g/l cysteine. All components were supplied by Trititium Microbiology (Veldhoven, The Netherlands). The pH of the medium was adjusted to 5.8.
For the i-screen fermentations, the precultured standardized fecal inoculum was diluted 50 times in 1350 μl modified SIEM. All experiments have been carried out in triplicates. The strains Bacillus subtilis (DSM 32315), Bacillus subtilis DSM 32540, Bacillus licheniformis DSM 32314 and Bacillus amyloliquefaciens CECT 5940 were precultured separately in 50 ml LBKelly medium, for about 16 h. Incubation was done in shaking flasks at 37° C. under aerobic conditions. After incubation, bacterial density was determined by optical density measurement at 600 nm. A final stock solution of 1×10^10 cells/ml was prepared in 1 ml buffer solution (0.1 mM MES pH 6). […]
(§3) DNA extraction for the sequencing of 16S rRNA coding genes was performed as described by Ladirat et al. (2013) with some minor modifications. Approximately 100 μl of the culture materials were added to the wells of a 96 well plate containing per well 300 μl of lysis buffer (Mag Mini DNA Isolation Kit, LGC ltd, UK), 500 μl zirconium beads (0.1 mm; BioSpec products, Bartlesville, OK, USA) and 500 μl of phenol saturated with Tris-HCI (pH 8.0; Carl Roth GMBH, Germany). The 96 well plate was placed in a Mini-BeadBeater-96 (BioSpec products, Bartlesville, Okla, USA) for 2 min at 2100 oscillations/min. DNA was subsequently purified using the Agowa Mag Mini DNA Isolation Kit according to the manufacturer recommendations. Extracted DNA was eluted in a final volume of 60 μl buffer.
(§4) The microbiota composition was analyzed by 16S rRNA gene amplicon sequencing of the V4 Hypervariable Region. This was Achieved Through a Series of Steps:
(§5) Subsequently, PCR amplicons of the V4 hypervariable region of the 16S rRNA gene were generated for the individual samples by amplification of […] of DNA as described by (2013), using F515/R806 primers. Primers included Illumina adapters and a unique 8-nt sample index sequence key. A mock control was included for technical quality control. The amount of amplified DNA per sample was quantified using the dsDNA 910 Reagent Kit on the Fragment Analyzer (Advanced Analytical). The amplicon libraries were pooled in equimolar amounts and purified from 1,2% agarose gel using the Gel Extraction Kit (Qiagen). The Library was quantified using the Quant-iT™ PicoGreen® dsDNA Assay Kit (Thermo Fisher Scientific). Paired-end sequencing of amplicons was conducted on the Illumina MiSeq platform (Illumina, Eindhoven, The Netherlands).
(§6) The sequence data was processed with Mothur v.1.36.1 [26] in line with the mothur MiSeq SOP [24].

[2] = tested on: Clostridium XIVa cluster; assay: i-screen microbiota composition by 16S rRNA V4 sequencing, Clostridium XIVa; format: cell-based, human; details: 24 h SIEM, amino acids 3.5 mM, dipeptides 7 mM
Text: as §1, §2
For the i-screen fermentations, the precultured standardized fecal inoculum was diluted 50 times in 1350 μl modified SIEM. All experiments have been carried out in triplicates. The strains Bacillus subtilis (DSM 32315), Bacillus subtilis DSM 32540, Bacillus licheniformis DSM 32314 and Bacillus amyloliquefaciens CECT 5940 were precultured separately in 50 ml LBKelly medium, for about 16 h. Incubation was done in shaking flasks at 37° C. under aerobic conditions. After incubation, bacterial density was determined by optical density measurement at 600 nm. A final stock solution of 1×10^10 cells/ml was prepared in 1 ml buffer solution (0.1 mM MES pH 6). The suspension of each strain was introduced into the i-screen to a final level of about 10^9 cells/ml, respectively
The i-screen incubation was performed under following gas conditions: 0.2% O2, 0.2% CO2, 10% H2, 89.6% N2.
as §3, §4, §5, §6

[3] = tested on: gut microbiota; details: oral supplementation, overweight humans; cited from earlier work
[4] = oral supplementation, guinea-pigs treated with methotrexate; cited from earlier work
[5] = infused, post-operative anaesthetized dogs; cited from earlier work
[6] = microbiota + CECT 5940 (first group so headed, r13-r15)
[7] = microbiota + CECT 5940 (second group so headed, r16-r18)

Row | SMILES | Clostridium_XI relative abundance [1, 6] [%] | Clostridium_XI relative abundance [1, 7] [%] | Clostridium_XI relative abundance ([1]; microbiota + DSM 32315) [%] | Clostridium_XI relative abundance ([1]; microbiota, no probiotic cells) [%] | Clostridium_XIVa relative abundance [2, 6] [%] | Clostridium_XIVa relative abundance [2, 7] [%] | Clostridium_XIVa relative abundance ([2]; microbiota + DSM 32315) [%] | Clostridium_XIVa relative abundance ([2]; microbiota, no probiotic cells) [%] | Firmicutes to Bacteriodetes ratio [3] | mortality [4] | extraction of the amino acids by skeletal muscle [5] | effect on Clostridia XI group [1]
1 | NC(=O)CC[C@H](N)C(=O)O [Gln, glutamine, reference compound] | 20 | 21 | 24 | 28 | 1 | 9 | 2 | 1 | reducing the Firmicutes to Bacteriodetes ratio | reduced mortality | – | –
2 | CC(=O)N[C@@H](C)C(=O)N[C@@H](CCC(N)=O)C(=O)O [Ac-Ala-Gln] (Ac-Ala-Gln-OH) | 21 | 20 | 31 | 27 | 1 | 4 | 2 | 1 | – | – | – | –
3 | C[C@H](N)C(=O)N[C@@H](CCC(N)=O)C(=O)O [Ala-Gln, Alanine-Glutamine] (H-Ala-Gln-OH) | 0 | 0 | 0 | 0 | 10 | 6 | 4 | 2 | – | – | extracted by skeletal muscle almost as well as from mixtures of alanine and glutamine | reduced the Clostridia XI group almost completely
4 | N[C@@H](CCC(=O)O)C(=O)O [Glu, glutamic acid, reference compound] | 26 | 18 | 25 | 27 | 1 | 1 | 3 | 1 | – | – | – | –
5 | NCC(=O)O.N[C@@H](CCC(=O)O)C(=O)O [Gly-Glu, Glycine-Glutamic acid] | 0 | 0 | 0 | 0 | 9 | 10 | 8 | 4 | – | – | – | reduced the Clostridia XI group almost completely
